Where a name gives a salt, the structure may show the parent alone.
Test: Aqueous chemical stability in phosphate buffer (HPLC, first-order decay)
Format: physicochemical
Conditions: half-life of the compound in buffer phosphate (100 mM), pH 8, 37° C., half-lives >360 min estimated from initial slope at low conversion (<10%)
Procedure: Stock solutions of the compounds in acetonitrile or acetonitrile/methanol were prepared at 20 mg/mL. and 20 μL, spiked into 3 mL of buffer phosphate (100 mM) and incubated at 37° C. Aliquots (50 μL) were sampled at different time points and diluted 20 fold with ammonium formate (pH 3.5)/acetonitrile. The diluted samples were analyzed by HPLC. The peak areas corresponding to the compounds were plotted against time and the data were fitted to a first-order mono-exponential decay where the rate constant and the half-life were determined (Table 2).

pH 8 (t½, min) [min] | SMILES
67.0 | COC(=O)/C=C/C(=O)OCCS(C)(=O)=O [Compound 10, Methyl (2-(methyl sulfonyl)ethyl) fumarate]
>240 | COC(=O)/C=C/C(=O)OCCN1CCS(=O)(=O)CC1 [Compound 11, 2-(1,1-dioxidothiomorpholino)ethyl methyl fumarate hydrochloride]
144 | COC(=O)/C=C/C(=O)OCCN1C(=O)CCC1=O [Compound 14, 2-(2,5-dioxopyrrolidin-1-yl)ethyl methyl fumarate]
3.0 | COC(=O)/C=C/C(=O)OCCN1CCCCC1 [Compound 15, Methyl (2-(piperidin-1-yl)ethyl) fumarate hydrochloride]
20.0 | COC(=O)/C=C/C(=O)OCCN1CCOCC1 [Compound 16, Methyl (2-morpholinoethyl) fumarate hydrochloride]
11.0 | COC(=O)/C=C/C(=O)OCCN1CCC2(CC1)OCCO2 [Compound 17, 2-(1,4-dioxa-8-azaspiro[4.5]decan-8-yl)ethyl methyl fumarate hydrochloride]
5.0 | COC(=O)/C=C/C(=O)OCCN1CCCC1 [Compound 18, Methyl (2-(pyrrolidin-1-yl)ethyl) fumarate hydrochloride]
6.0 | COC(=O)/C=C/C(=O)OCCN(C)C [Compound 19, 2-(dimethylamino)ethyl methyl fumarate hydrochloride]
5.0 | CCN(CC)CCOC(=O)/C=C/C(=O)OC [Compound 20, 2-(diethylamino)ethyl methyl fumarate hydrochloride]
120 | CCN(CC)C(=O)COC(=O)/C=C/C(=O)OC [Reference Compound A, 2-(diethylamino)-2-oxoethyl methyl fumarate, reference compound]

SMILES | pH 8 (t½, min) [min]
COC(=O)/C=C/C(=O)OC(C)CN(C)C (stereo not drawn) [Compound 6, 1-(dimethylamino)propan-2-yl methyl fumarate hydrochloride] | 2.0
COC(=O)/C=C/C(=O)OCCN1CCSCC1 [Compound 7, Methyl (2-thiomorpholinoethyl) fumarate hydrochloride] | 26.0
COC(=O)/C=C/C(=O)OCCNc1ccccc1 [Compound 8, Methyl (2-(phenylamino)ethyl) fumarate hydrochloride] | 36.0
COC(=O)/C=C/C(=O)OCC(C)(C)N(C)C [Compound 9, 2-(dimethylamino)-2-methylpropyl methyl fumarate hydrochloride] | 7.0
COC(=O)/C=C/C(=O)OCCN(C)c1ccccc1 [Compound 12, Methyl (2-(methyl(phenyl)amino)ethyl) fumarate hydrochloride] | 396

From US11230548B2, “Prodrugs of fumarates and their use in treating various diseases” (Alkermes Pharma Ireland Limited, priority 2013, dated 2022)
